Here are results for four molecules from publication PMC9769880, “Diverse Sensory Repertoire of Paralogous Chemoreceptors Tlp2, Tlp3, and Tlp4 in Campylobacter jejuni” (Microbiology Spectrum, 2022).

Read-outs that look alike come from different tables or passages of the source. A value given as a limit tells only on which side of the number the result lay.

Test [1] has as its target T1, Tlp3 (Campylobacter jejuni, UniProt Q0P864). In words: STD NMR spectroscopy of arginine in complex with Tlp3. The following applies: 283K, 600.13 MHz; H3/H3′ and H5/H5′. In kind it is binding. Here is the method: STD NMR experiments were performed as previously described in ([10]). […] A control sample was prepared in an identical manner without the addition of Tlp3. All NMR experiments were performed using 3-mm NMR tubes on a Bruker Avance 600 MHz spectrometer equipped with a 5-mm TXI probe with triple-axis gradients at 283K without sample spinning. ^1H NMR spectra were acquired with 32 scans and a 2-s relaxation delay over a spectral width of 6,000 Hz. Solvent suppression of the residual HDO peak was achieved by using a continuous low-power presaturation pulse during the relaxation delay. For all STD NMR experiments, the protein was saturated at −0.5 ppm in the aliphatic region of the spectrum and off-resonance at 33 ppm with a cascade of 40 selective Gaussian-shaped pulses of 50-ms duration (50 dB), which correlates to a strength of 190 Hz. A 100-μs delay between each soft pulse was applied, resulting in a total saturation time of ~2 s 2 K scans were acquired per sample. Data were obtained with interspersed acquisition of pseudo-two-dimensional on-resonance and off-resonance spectra in order to minimize the effects of temperature and magnet instability. On- and off-resonance spectra were processed separately, and the final STD NMR spectrum was obtained by subtracting the individual on- and off-resonance spectra, resulting in low-subtraction artifacts.

In test [2] the target is T2, Tlp2 (Campylobacter jejuni, UniProt Q0PBZ3). In words: biochemical. The note with it: read-out: Tlp2 Affinity. It counts as binding. The procedure:
(§1) His-tagged proteins (Tlp2, -3, and -4) were prepared as previously described ([11]) DNA segments encoding the periplasmic sensory domains (33 to 286 amino acids) of Tlp2 and (38 to 297 amino acids) of Tlp4 were amplified (see Table S7), ligated into pGEM-T Easy (Promega) and subcloned into pET-19b (Novagen) (see Table S6). Recombinant proteins were expressed in E. coli BL21(DE3) using 1 mM IPTG (isopropyl-β-D-thiogalactopyranoside) and purified using His-select-nickel chromatography as described previously ([8], [11]). The purity of the proteins was confirmed by SDS-PAGE and Western blot analysis with anti-His antibodies (Bio-Rad). Protein concentrations were determined using a NanoDrop spectrophotometer (Thermo Fisher).
(§2) Surface plasmon resonance (SPR) experiments were performed as described previously ([10], [11]) with the following modifications. Briefly, purified proteins were diluted to 0.15 μM in sodium acetate (pH 4.0) and immobilized onto an active flow cell of a CM5 sensor chip with a flow rate of 5 μL/min for 7 min of contact time using a standard amine coupling protocol. Immobilized protein levels for all three proteins ranged from 6028.3 to 9779.3 response units (RU) providing a minimum expected response maximum (RMax) between 20 and 50 RU for the small molecules tested. […] All ligands were prepared in PBS (pH 7.2) and serially diluted from 0.2 to 0.0125 mM. A 10-min dissociation period was allocated after the introduction of each analyte. SPR experiments were performed in single-cycle kinetics mode using the BIAcore S200 biosensor system (Cytiva) at 25°C in PBS (pH 7.2) at a flow rate of 30 μL/min. The equilibrium dissociation constant (KD) for each analyte was determined using BIAcore S200 Evaluation software with a report point 4 s after the injection stop to account for the bulk transfer of the small molecule against a large amount of immobilized protein (as shown in Fig. S5).

The target in test [3] is T3, Tlp4 (Campylobacter jejuni, UniProt Q0PBP3). Description: biochemical. The note with it: read-out: Tlp4 Affinity. In kind it is binding. The procedure: as §1, §2
T3 sequence (Q0PBP3 entry or part of it): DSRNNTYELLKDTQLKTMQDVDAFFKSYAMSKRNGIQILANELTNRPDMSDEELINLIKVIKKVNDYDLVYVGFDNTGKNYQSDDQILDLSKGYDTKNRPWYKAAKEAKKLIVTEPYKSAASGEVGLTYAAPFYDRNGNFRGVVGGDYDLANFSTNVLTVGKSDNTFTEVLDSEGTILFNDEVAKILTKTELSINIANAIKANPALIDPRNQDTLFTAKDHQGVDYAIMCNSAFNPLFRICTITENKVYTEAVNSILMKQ
The test system of test [4] is Tlp3. It counts as cell-based, C. jejuni 11168-O. The procedure: The biological relevance of the binding specificities of the Tlp2,3,4 cluster was assessed by examining chemotactic responses of C. jejuni 11168-O tlp2, tlp3, and tlp4 wild-type (WT) and mutant strains using a nutrient-depleted chemotaxis assay. All ligands, with the exception of lysine and cysteine, interacted with Tlp2 and Tlp4 as attractants (Table 1), showing an ~1- to ~2-log decrease (P < 0.05) in migration toward the ligand compared to the WT strain.
Chemotaxis assays—the nutrient-depleted chemotaxis assay and the modified hard agar plug assay (tHAP)—were performed as previously described ([11], [34]). The chemotactic responses of all isogenic strains were compared to that of the C. jejuni 11168-O wild-type strain to distinguish between chemoattractants and chemorepellents. For the nutrient-depleted chemotaxis and modified hard agar plug (tHAP) assays, all differences were calculated as changes on a log10 scale. Controls were provided by using nonmotile (C. jejuni 81116 flaAB) and nonchemotactic (C. jejuni NCTC 11168 cheY) mutants ([69]) and mucin as negative and positive controls ([10]).

A further test concerns WT Tlp3^LBD. In words: SPR competition assay (A-B-A inject). In kind it is binding, Campylobacter jejuni. The note with it: 15 seconds after injection-B; glucose 300 µM, fucose 300 μM, malic acid 200 μM. Here is the method:
. Competition A-B-A analyses determine the specificity of the potential ligand-binding site preferences of WT Tlp3^LBD. The bound protein is saturated with the first analyte (A), followed by the introduction of a second analyte (B); the assay is designed to show whether a cumulative response is observed after the second analyte (B) is added. A cumulative response indicates two independent binding sites, whereas the lack of a cumulative response indicates a single site where ligands compete for binding, i.e., when analyte A occupies a ligand binding site, analyte B cannot bind. […] All response data were normalized to a 100-Da molecular weight for each analyte, allowing direct comparison of the responses. Both actual RU values and theoretical values are recorded for comparison.
Figure S6. […] A) Injections are […]
at 300 μM for 60 seconds). Final responses units (RU) of injections are recorded (indicated by dashed vertical […]
81 at 15 s econds after injection- B and l fu cose […]
and fucose were compet ed was 4.4 RU ± 0.46. As this value sits be low 5 RU, it indicates direct competition for […]
Final respons es units (RU) of injections ar e re cor ded (indicated […]
As this value sits between
5.07- 13.5 RU, it indicates direct competition for the same site with glucos e replacing some of the bound malic acid during the 60 second injection- B.

In test [5] the target is T1, Tlp3. In words: Glycan/small molecule arrays with Tlp3. The following applies: yes/no binding. Here is the method: (§3) Glycan (>400 monosaccharides or complex glycans) and small molecule arrays containing amino acids and salts were performed as described previously by Day et al. ([67]). Briefly, 1 μg of purified recombinant protein was complexed with anti-His antibody (Cell Signaling Technology) and rabbit anti-mouse/goat anti-rabbit Alexa 555-IgG (Thermo Scientific) at a molar ratio of 1:0.5:0.25 and then incubated on the array for […] in phosphate-buffered saline (PBS). The array slides were scanned at 488/520 nm and analyzed using InnoScan 1100 with MAPIX software. All arrays were performed in triplicate with a total of 12 data points for each glycan tested; the complete data set and MIRAGE (i.e., minimum information regarding a glycomics experiment) results are shown in Tables S3 and S8.
(§4) Table S8 - Supplementary glycan microarray document based on M IRAGE guidelines. D O I:
(§5) Classification Guidelines
(§6) 1. Sample: Glycan Binding Sample
(§7) Origin: Helicobacter pylori SS1; produced as a recombinant His - tagged protein in E.
(§8) The preparation of Tlp2,3, and 4 is explained in the Materials and Methods section:
(§9) Expression and purification of the periplasmic domain of Tlp2,3, and 4.
(§10) Sample Sample is a His Tagged protein containing only the periplasmic receptor domain of the modifications full length Tlp2,3, and 4transmembrane protein.
(§11) Please see Materials and Methods: Tlps 2/3/4 bind to a range of ligands, including […]
(§12) Proteins were complexed with mouse anti- his antibody, with secondary and tertiary AlexaFluor555 antibodies (rabbit anti-mouse, goat anti-rabbit) at a molar ratio of 4:2:1.
(§13) The protein/antibody complex was incubated on ice for 10 mins prior to placing on the Assay protocol array. Arrays were performed with 1 µg of complexed protein incubated on the array for 20 min. Arrays were then washed 3 times in Array PBS (PBS + 2mM MgCl2 + 2mM CaCl2) then dried by centrifugation for 3 min at 300 x g . Scanning was performed us ing an Innopsys InnoScan 1100AL and analyzed using Mapix (Innopsys). Yes/no binding was determined by six positive replicate spots in three replicate experiments. Positive […]
(§14) Glycan Glycans in this study are listed in Table S2 and is a published library in doi:
(§15) Glycans were prepared in one of two ways for printing:
(§16) Glycan 1. Glycans (with IDs in number/letter format; e.g. 1A, 4C, 7K) were sourced modifications commercially from Dextra Laboratories, Elicityl and Carbosythn and were made into glycoamines using the protocol published in Day et al 2009 (doi:
(§17) Glycan arrays: We only use glycan arrays as a yes/no binding tool. Due to this we look only at binding that is unambiguously above background vs lack of binding above background. Average background + 3x standard deviation of the background of 20 sets of 4 spots of DMF:DMSO only spots is applied to determine if binding observed is […]
(§18) Only spots with values equal to or greater than this value were considered as binding from data of any tested slide. These values are slide […]
(§19) Data Small molecule arrays: We only use amino acid arrays as a yes/no binding tool. Due interpretation to this we look only at binding that is unambiguously above background vs lack of binding above background. Average background + 3x standard deviation of the background of 6 spots of PBS + 2% glycerol only spots is applied to determine if […]
(§20) Only spots with values equal to or greater than this value were considered as binding from data of any tested slide. These values are slide dependent. […]

Test [6] concerns the target T2, Tlp2. It counts as binding. The note with it: yes/no binding. Here is the method: as §3, §4, §5, §6, §7, §8, §9, §10, §11, §12, §13, §14, §15, §16, §17, §18, §19, §20
Test [7] deals with T3, Tlp4. It counts as binding. The following applies: yes/no binding. Here is the method: as §3, §4, §5, §6, §7, §8, §9, §10, §11, §12, §13, §14, §15, §16, §17, §18, §19, §20
In another test the target is Tlp3^LBD W151A (Campylobacter jejuni, UniProt Q0P864, W151A). In words: biochemical.
Chain of Tlp3^LBD W151A (Q0P864 41-290 W151A): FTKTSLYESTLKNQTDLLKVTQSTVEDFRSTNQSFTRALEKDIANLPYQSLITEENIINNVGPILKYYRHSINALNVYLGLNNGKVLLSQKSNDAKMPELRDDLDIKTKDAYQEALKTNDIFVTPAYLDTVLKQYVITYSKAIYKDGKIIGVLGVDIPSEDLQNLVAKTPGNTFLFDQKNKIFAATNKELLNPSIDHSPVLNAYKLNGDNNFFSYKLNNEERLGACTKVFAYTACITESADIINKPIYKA
Another test has as its target Tlp3^LBD D170A (Campylobacter jejuni, UniProt Q0P864). Description: biochemical.
The target in the next test is Tlp3^LBD D196A (Campylobacter jejuni, UniProt Q0P864, D196A). In words: biochemical.
Chain of Tlp3^LBD D196A (Q0P864 41-290 D196A): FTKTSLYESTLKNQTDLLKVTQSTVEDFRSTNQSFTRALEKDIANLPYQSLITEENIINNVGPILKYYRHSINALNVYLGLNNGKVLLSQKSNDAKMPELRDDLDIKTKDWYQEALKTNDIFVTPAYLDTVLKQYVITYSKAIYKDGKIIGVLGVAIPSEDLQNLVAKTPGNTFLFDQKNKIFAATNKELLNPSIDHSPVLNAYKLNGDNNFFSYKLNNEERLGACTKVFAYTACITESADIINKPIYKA
In test [8] the target is T1, Tlp3. In words: biochemical. It counts as binding. The procedure:
as §1, with “The purity of the proteins was confirmed by SDS-PAGE and Western blot analysis with anti-His antibodies (Bio-Rad).” left out
Surface plasmon resonance (SPR) experiments were performed as described previously ([10], [11]) with the following modifications. […] All ligands were prepared in PBS (pH 7.2) and serially diluted from 0.2 to 0.0125 mM. A 10-min dissociation period was allocated after the introduction of each analyte. SPR experiments were performed in single-cycle kinetics mode using the BIAcore S200 biosensor system (Cytiva) at 25°C in PBS (pH 7.2) at a flow rate of 30 μL/min. The equilibrium dissociation constant (KD) for each analyte was determined using BIAcore S200 Evaluation software with a report point 4 s after the injection stop to account for the bulk transfer of the small molecule against a large amount of immobilized protein (as shown in Fig. S5).

The next test has as its system Δtlp2,3,4 triple mutant. It counts as cell-based. The following applies: compared with the other mutants.
A further test has as its target Tlp3^LBD K149A (Campylobacter jejuni, UniProt Q0P864, K149A). In words: biochemical.
The target of the next test is Tlp3^LBD D169A (Campylobacter jejuni, UniProt Q0P864, D169A). Description: biochemical.
Chain of Tlp3^LBD D169A (Q0P864 41-290 D169A): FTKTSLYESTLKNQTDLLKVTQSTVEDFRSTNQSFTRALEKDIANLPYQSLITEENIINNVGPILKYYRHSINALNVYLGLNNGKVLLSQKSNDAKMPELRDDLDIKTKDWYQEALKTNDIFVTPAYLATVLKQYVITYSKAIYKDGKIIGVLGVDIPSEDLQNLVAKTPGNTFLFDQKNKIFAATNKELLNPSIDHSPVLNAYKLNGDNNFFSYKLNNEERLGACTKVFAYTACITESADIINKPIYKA
For test [9], the system named is C. jejuni 11168-O tlp2, tlp3, and tlp4 mutant strains. It counts as cell-based. The following applies: positive control.
[10] abbreviates: SPR KD, mean ± SD, NB = no binding.

T2 sequence (Q0PBZ3 entry or part of it): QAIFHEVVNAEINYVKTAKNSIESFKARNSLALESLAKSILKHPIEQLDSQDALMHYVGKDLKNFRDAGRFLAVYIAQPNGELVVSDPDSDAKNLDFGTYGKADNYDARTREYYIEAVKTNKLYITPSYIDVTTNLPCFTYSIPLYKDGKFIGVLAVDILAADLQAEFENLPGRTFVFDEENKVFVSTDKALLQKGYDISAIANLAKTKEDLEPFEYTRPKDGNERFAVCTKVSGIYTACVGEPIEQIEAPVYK
T1 sequence (Q0P864 entry or part of it): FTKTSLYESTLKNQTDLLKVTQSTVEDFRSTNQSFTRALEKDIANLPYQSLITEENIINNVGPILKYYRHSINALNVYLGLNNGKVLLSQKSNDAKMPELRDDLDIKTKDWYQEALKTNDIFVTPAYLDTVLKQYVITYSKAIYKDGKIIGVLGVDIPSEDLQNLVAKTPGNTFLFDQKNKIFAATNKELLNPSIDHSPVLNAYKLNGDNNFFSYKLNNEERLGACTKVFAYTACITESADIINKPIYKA
Chain of Tlp3^LBD K149A (Q0P864 41-290 K149A): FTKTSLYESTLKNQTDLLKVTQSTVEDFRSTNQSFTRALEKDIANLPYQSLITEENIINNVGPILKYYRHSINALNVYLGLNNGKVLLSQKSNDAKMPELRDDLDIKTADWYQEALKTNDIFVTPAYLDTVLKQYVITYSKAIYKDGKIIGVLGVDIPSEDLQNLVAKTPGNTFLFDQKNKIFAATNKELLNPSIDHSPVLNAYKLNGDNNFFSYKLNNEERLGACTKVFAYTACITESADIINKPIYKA
Chain of Tlp3^LBD D170A (Q0P864 41-290 T170A): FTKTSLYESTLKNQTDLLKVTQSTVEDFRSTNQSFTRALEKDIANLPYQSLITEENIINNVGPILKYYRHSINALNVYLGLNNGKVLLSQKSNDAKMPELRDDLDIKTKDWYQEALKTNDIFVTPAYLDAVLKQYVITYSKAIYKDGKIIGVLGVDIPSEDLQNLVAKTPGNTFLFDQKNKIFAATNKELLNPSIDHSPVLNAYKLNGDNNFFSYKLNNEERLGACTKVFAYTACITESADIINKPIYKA

In the case of `N=C(N)NCCC[C@H](N)C(=O)O` [Arginine], the “saturation transfer (STD NMR)” value on Tlp3 [1] is recorded as “Strong saturation transfer”. Further, the Kd on Tlp2 [2] and at Tlp4 [3] was over 200 µM each time. Besides, the “Tlp3 CR (chemoresponse)” value in the test on Tlp3 [4] was “R”.
In the case of `OC[C@H]1OC(O)[C@H](O)[C@@H](O)[C@@H]1O` (some centres unmarked) [Glucose], the “SPR response of single analyte” value in the test on WT Tlp3^LBD worked out at 5.07 RU. Besides, the “binding to Tlp3 on glycan/small molecule array” value on Tlp3 [5] is listed as “interacted”. The Kd was found to be 18.1 ± 2.2 µM on Tlp2 [2] (setting [10]) and 18.3 ± 1.1 µM on Tlp4 [3] (setting [10]). Also, at Tlp2 [6], the “binding to Tlp2 on glycan/small molecule array” value is “interacted”. Moreover, the “binding to Tlp4 on glycan/small molecule array” value at Tlp4 [7] was “interacted”.
Consider `c1ncc2nc[nH]c2n1` [Purine], for which the Kd at Tlp3^LBD W151A came out at 36.1 ± 15.7 µM; at Tlp3^LBD D170A it was 20.6 ± 4 µM; at Tlp3^LBD D196A, 35.8 ± 1.5 µM; at Tlp3 [8] it was 37.2 ± 17.4 µM; on Tlp2 [2] (setting [10]), 5.4 ± 1.1 µM; at Tlp4 [3] (setting [10]), 1.2 ± 0.7 µM. The Kd on Tlp3^LBD K149A worked out at 41.9 ± 24 µM; at Tlp3^LBD D169A, 15.7 ± 6.6 µM. On Tlp3 [5], the “binding to Tlp3 on glycan/small molecule array” value is “bind specifically”. Besides, in the test on Δtlp2,3,4 triple mutant, the “migration toward ligand, Δtlp2,3,4 triple mutant” value was “greatest reduction in migration”. Moreover, the “binding to Tlp2 on glycan/small molecule array” value on Tlp2 [6] is “bound”. In addition, at Tlp4 [7], the “binding to Tlp4 on glycan/small molecule array” value was “bound”.
With mucin, in test [9], the “migration toward control ligand in mutants” value is listed as “not affected”.
